# Test results as given in patent US9334289B2, “Cephem compound having catechol or pseudo-catechol structure” (SHIONOGI & CO., LTD., priority 2011, dated 2016).
# Assays:
# Type in all cases: cell-based
# P. aeruginosa SR24 = test: MIC, CLSI broth microdilution, Test Example 1; conditions: Pseudomonas aeruginosa, SR24; Ceftazidime resistance strain; cation-adjusted Mueller Hinton broth containing human apo-transferrin; 5×10^5 cfu/mL; read-out: Minimum Inhibitory Concentration (MIC) P. aeruginosa SR24
# P. aeruginosa SR27060 = test: MIC, CLSI broth microdilution, Test Example 1; conditions: Pseudomonas aeruginosa, SR27060; IMP-1 MBL producing strain (carbapenem resistance strain); cation-adjusted Mueller Hinton broth containing human apo-transferrin; 5×10^5 cfu/mL; read-out: Minimum Inhibitory Concentration (MIC) P. aeruginosa SR27060
# Method: (§1) Measurement of Minimum Inhibitory Concentration (MIC: μg/mL) was conducted according to CLSI (Clinical and Laboratory Standards Institute) method, and the amount of bacteria for inoculation was 5×10^5 cfu/mL, and cation-adjusted Mueller Hinton broth containing human apo-transferrin was used as a test medium, and the experiment was conducted using broth microdilution method. The bacteria used are listed below.
# E. coli ATCCBAA-199 = test: MIC, CLSI broth microdilution, Test Example 1; conditions: Escherichia coli, ATCCBAA199; SHV-3 ESBL producing strain; cation-adjusted Mueller Hinton broth containing human apo-transferrin; 5×10^5 cfu/mL; read-out: Minimum Inhibitory Concentration (MIC) E. coli ATCC BAA-199
# Method: as §1
# [1] = test system: K. pneumoniae ATCCBAA-1705; test: MIC, CLSI broth microdilution, Test Example 1; conditions: Klebsiella pneumoniae, ATCCBAA1705; KPC-2 carbapenemase producing strain; cation-adjusted Mueller Hinton broth containing human apo-transferrin; 5×10^5 cfu/mL; read-out: Minimum Inhibitory Concentration (MIC) K. pneumoniae ATCCBAA-1705
# Method: as §1
# E. coli ATCCBAA-200 [2] = test: MIC, CLSI broth microdilution, Test Example 1; conditions: Escherichia coli, ATCCBAA200; SHV-4 ESBL producing strain; cation-adjusted Mueller Hinton broth containing human apo-transferrin; 5×10^5 cfu/mL; read-out: Minimum Inhibitory Concentration (MIC) E. coli ATCC BAA-200
# Method: as §1
# P. aeruginosa SR24837 = test: MIC, CLSI broth microdilution, Test Example 1; conditions: Pseudomonas aeruginosa, SR24837; PER-1 ESBL producing strain; cation-adjusted Mueller Hinton broth containing human apo-transferrin; 5×10^5 cfu/mL; read-out: Minimum Inhibitory Concentration (MIC) P. aeruginosa SR24837
# Method: as §1
# A. baumannii SR27323 = test: MIC, CLSI broth microdilution, Test Example 1; conditions: Acinetobacter baumannii, SR27323; OXA-23, OXA-58 carbapenemase producing strain; cation-adjusted Mueller Hinton broth containing human apo-transferrin; 5×10^5 cfu/mL; read-out: Minimum Inhibitory Concentration (MIC) A. baumannii SR27323
# Method: as §1
# P. aeruginosa SR01335 = test: MIC, CLSI broth microdilution, Test Example 2; conditions: Pseudomonas aeruginosa, SR01335; VIM-1 like MBL producing strain (carbapenem resistance strain); cation-adjusted Iso-Sensitest broth containing human Apo-transferrin; 5×10^5 cfu/mL; read-out: Minimum Inhibitory Concentration (MIC) P. aeruginosa SR01335
# Outline: (§2)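 Bacteria were inoculated at 5×10^5 cfu/mL into cation-adjusted Iso-Sensitest broth containing human Apo-transferrin. MICs (μg/mL) were then determined by broth microdilution following the CLSI method.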
# P. aeruginosa SR01332 = test: MIC, CLSI broth microdilution, Test Example 2; conditions: Pseudomonas aeruginosa, SR01332; VIM-11 MBL producing strain (carbapenem resistance strain); cation-adjusted Iso-Sensitest broth containing human Apo-transferrin; 5×10^5 cfu/mL; read-out: Minimum Inhibitory Concentration (MIC) P. aeruginosa SR01332
# Outline: as §2
# E. coli ATCCBAA-196 = test: MIC, CLSI broth microdilution, Test Example 2; conditions: Escherichia coli, ATCCBAA196; TEM-10 ESBL producing strain; cation-adjusted Iso-Sensitest broth containing human Apo-transferrin; 5×10^5 cfu/mL; read-out: Minimum Inhibitory Concentration (MIC) E. coli ATCC BAA-196
# Outline: as §2
# E. coli ATCCBAA-200 [3] = test: MIC, CLSI broth microdilution, Test Example 2; conditions: Escherichia coli, ATCCBAA200; SHV-4 ESBL producing strain; cation-adjusted Iso-Sensitest broth containing human Apo-transferrin; 5×10^5 cfu/mL; read-out: Minimum Inhibitory Concentration (MIC) E. coli ATCC BAA-200
# Outline: as §2
# E. cloacae NCTC13464 = test: MIC, CLSI broth microdilution, Test Example 2; conditions: Enterobacter cloacae, NCTC13464; CTX-M group 9 ESBL producing strain; cation-adjusted Iso-Sensitest broth containing human Apo-transferrin; 5×10^5 cfu/mL; read-out: Minimum Inhibitory Concentration (MIC) E. cloacae NCTC 13464
# Outline: as §2
# E. coli SR01337 = test: MIC, CLSI broth microdilution, Test Example 2; conditions: Escherichia coli, SR01337; TEM-1 ESBL producing strain; cation-adjusted Iso-Sensitest broth containing human Apo-transferrin; 5×10^5 cfu/mL; read-out: Minimum Inhibitory Concentration (MIC) E. coli SR01337
# Outline: as §2
# K. pneumoniae ATCC700603 = test: MIC, CLSI broth microdilution, Test Example 2; conditions: Klebsiella pneumoniae, ATCC700603; SHV18 ESBL producing strain; cation-adjusted Iso-Sensitest broth containing human Apo-transferrin; 5×10^5 cfu/mL; read-out: Minimum Inhibitory Concentration (MIC) K. pneumoniae ATCC 700603
# Outline: as §2
# A. baumannii SR01331 = test: MIC, CLSI broth microdilution, Test Example 2; conditions: Acinetobacter baumannii, SR01331; PER-1, OXA-23.51 ESBL- & OXA-type carbapenemase producing strain; cation-adjusted Iso-Sensitest broth containing human Apo-transferrin; 5×10^5 cfu/mL; read-out: Minimum Inhibitory Concentration (MIC) A. baumannii SR01331
# Outline: as §2
SMILES,MIC (P. aeruginosa SR24),MIC (P. aeruginosa SR27060),MIC (E. coli ATCCBAA-199),MIC [1],MIC (E. coli ATCCBAA-200 [2]),MIC (P. aeruginosa SR24837),MIC (A. baumannii SR27323),MIC (P. aeruginosa SR01335),MIC (P. aeruginosa SR01332),MIC (E. coli ATCCBAA-196),MIC (E. coli ATCCBAA-200 [3]),MIC (E. cloacae NCTC13464),MIC (E. coli SR01337),MIC (K. pneumoniae ATCC700603),MIC (A. baumannii SR01331)
CC(C)(O/N=C(\C(=O)N[C@@H]1C(=O)N2C(c3nnn[n-]3)=C(C[N+]34CCC(CNC(=O)c5ccc(O)c(O)c5Cl)(CC3)CC4)CS[C@H]12)c1csc(N)n1)C(=O)[O-].[Na+] [Compound I-10],0.25 µg/mL,2 µg/mL,0.5 µg/mL,≤ 0.031 µg/mL,1 µg/mL,2 µg/mL,0.5 µg/mL,–,–,–,–,–,–,–,–
CC(C)(O/N=C(\C(=O)N[C@@H]1C(=O)N2C(c3nnn[n-]3)=C(C[N+]3(CCNC(=O)c4ccc(O)c(O)c4Cl)CCCC3)CS[C@H]12)c1csc(N)n1)C(=O)[O-].[Na+] [Compound I-1],0.5 µg/mL,0.5 µg/mL,0.063 µg/mL,≤ 0.031 µg/mL,0.125 µg/mL,0.5 µg/mL,0.5 µg/mL,–,–,–,–,–,–,–,–
CC(C)(O/N=C(\C(=O)N[C@@H]1C(=O)N2C(c3nn[n-]n3)=C(C[N+]3(C)CCC(NC(=O)c4ccc(O)c(O)c4Cl)CC3)CS[C@H]12)c1csc(N)n1)C(=O)[O-].[Na+] (stereo partly shown) [Compound I-47],0.125 µg/mL,1 µg/mL,0.5 µg/mL,0.063 µg/mL,1 µg/mL,0.5 µg/mL,0.25 µg/mL,–,–,–,–,–,–,–,–
CC(C)(O/N=C(\C(=O)N[C@@H]1C(=O)N2C(c3nn[n-]n3)=C(C[n+]3ccc(C(=O)c4ccc(O)c(O)c4Cl)cc3)CS[C@H]12)c1csc(N)n1)C(=O)[O-].[Na+] [Compound I-48],≤ 0.031 µg/mL,0.25 µg/mL,0.25 µg/mL,≤ 0.031 µg/mL,0.25 µg/mL,0.125 µg/mL,0.5 µg/mL,–,–,–,–,–,–,–,–
CC(C)(O/N=C(\C(=O)N[C@@H]1C(=O)N2C(c3nnn[nH]3)=C(C[n+]3ccc(NC(=O)c4ccc(O)c(O)c4Cl)c4ccccc43)CS[C@H]12)c1csc(N)n1)C(=O)[O-] [Compound I-78],0.125 µg/mL,0.25 µg/mL,0.25 µg/mL,≤ 0.031 µg/mL,0.5 µg/mL,0.125 µg/mL,0.25 µg/mL,–,–,–,–,–,–,–,–
CC(C)(O/N=C(\C(=O)N[C@@H]1C(=O)N2C(c3nnn[n-]3)=C(C[N+]3(CCNC(=O)c4cc(O)c(O)cc4Cl)CCCC3)CS[C@H]12)c1csc(N)n1)C(=O)[O-].[Na+] [Compound I-50],0.25 µg/mL,1 µg/mL,0.25 µg/mL,≤ 0.031 µg/mL,0.5 µg/mL,2 µg/mL,1 µg/mL,–,–,–,–,–,–,–,–
Cc1cc2cc(O)c(O)cc2c[n+]1CC1=C(c2nnn[n-]2)N2C(=O)[C@@H](NC(=O)/C(=N\OC(C)(C)C(=O)[O-])c3csc(N)n3)[C@H]2SC1.[Na+] [Compound I-121],–,–,–,–,–,–,–,0.5 µg/mL,1 µg/mL,≤ 0.031 µg/mL,≤ 0.031 µg/mL,0.063 µg/mL,≤ 0.031 µg/mL,≤ 0.031 µg/mL,0.125 µg/mL
CC(C)(O/N=C(\C(=O)N[C@@H]1C(=O)N2C(c3nnn[nH]3)=C(C[N+]3(C)[C@@H]4CC[C@H]3C[C@@H](NC(=O)c3cc(O)c(O)c(F)c3)C4)CS[C@H]12)c1nsc(N)n1)C(=O)O.[Na+] (stereo partly shown) [Compound I-117],–,–,–,–,–,–,–,2 µg/mL,4 µg/mL,1 µg/mL,1 µg/mL,0.5 µg/mL,0.063 µg/mL,0.25 µg/mL,0.5 µg/mL
